Laboratory results reported in patent US8158152B2, “Lyophilization process and products obtained thereby” (SciDose LLC, priority 2005, dated 2012).

How the values were obtained:
[1] = cited from earlier work
[2] = Solubility as stated in words; assay type: physicochemical; conditions: in the presence of small quantities of HCl

Row | SMILES | solubility in solvents, as generally considered ([1]; general knowledge) | solubility in non-aqueous solvents (e.g. THF) [2] | solubility in ethanol ([1]; ethanol) | solubility in water ([1]; water)
1 | CCC(C)n1ncn(-c2ccc(N3CCN(c4ccc(OCC5COC(Cn6cncn6)(c6ccc(Cl)cc6Cl)O5)cc4)CC3)cc2)c1=O (stereo not shown) [itraconazole] | soluble in methylene chloride only | high concentrations of itraconazole can be dissolved |  | 
2 | O=P1(N(CCCl)CCCl)NCCCO1 (stereo not shown) [cyclophosphamide] |  |  | highly soluble | sparingly soluble
